Assay results from the supplement of paper PMC10307832.

Legend:
Experiment in all cases: relative viability (nuclei count vs DMSO), 5 days (fraction); higher = more cells survive
NCI-H596 = system: NCI-H596
Procedure, shortened: (§1)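 Lung cancer cell lines were pin-tool dosed in 1536-well plates on the day after seeding, with either a lone drug or a fixed anchor-drug dose plus five library-drug doses (not always all listed) in √10 steps. Nuclei were counted on 4× images after 5 days. Relative viability is the ratio of treated-well to vehicle-well nuclei counts, with each value a median of duplicate plates.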

NCI-H358 = system: NCI-H358
Procedure, shortened: as §1

LC-2-ad = system: LC-2-ad
Procedure, shortened: as §1

NCI-H650 = system: NCI-H650
Procedure, shortened: as §1

LXF-289 = system: LXF-289
Procedure, shortened: as §1

NCI-H838 = system: NCI-H838
Procedure, shortened: as §1

SK-MES-1 = system: SK-MES-1
Procedure, shortened: as §1

BEN = system: BEN
Procedure, shortened: as §1

NCI-H1944 = system: NCI-H1944
Procedure, shortened: as §1

NCI-H2342 = system: NCI-H2342
Procedure, shortened: as §1

LK-2 = system: LK-2
Procedure, shortened: as §1

NCI-H661 = system: NCI-H661
Procedure, shortened: as §1

ChaGo-K-1 = system: ChaGo-K-1
Procedure, shortened: as §1

LU99A = system: LU99A
Procedure, shortened: as §1

NCI-H2087 = system: NCI-H2087
Procedure, shortened: as §1

NCI-H1666 = system: NCI-H1666
Procedure, shortened: as §1

NCI-H1355 = system: NCI-H1355
Procedure, shortened: as §1

NCI-H1975 = system: NCI-H1975
Procedure, shortened: as §1

LCLC-97TM1 = system: LCLC-97TM1
Procedure, shortened: as §1

NCI-H1651 = system: NCI-H1651
Procedure, shortened: as §1

PC-3 [JPC-3] = system: PC-3 [JPC-3]
Procedure, shortened: as §1

CC(=O)O[C@@]12CO[C@@H]1C[C@H](O)[C@@]1(C)C(=O)[C@H](O)C3=C(C)[C@@H](OC(=O)[C@H](O)[C@@H](NC(=O)OC(C)(C)C)c4ccccc4)C[C@@](O)([C@@H](OC(=O)c4ccccc4)[C@H]21)C3(C)C [Docetaxel] + CCNC(=O)c1noc(-c2cc(C(C)C)c(O)cc2O)c1-c1ccc(CN2CCOCC2)cc1 [Luminespib] (partner 0.01 µM) was tested, and the relative viability (NCI-H596; first compound 0.0002 µM) was 0.872, the relative viability (NCI-H596; first compound 0.000632 µM) was 0.58 and the relative viability (NCI-H596; first compound 0.002 µM) was 0.713. It also gave a relative viability (NCI-H596; first compound 0.006325 µM) of 0.36, a relative viability (NCI-H596; first compound 0.02 µM) of 0.267 and a relative viability (NCI-H358; first compound 0.0002 µM) of 0.314. It also gave a relative viability (NCI-H358; first compound 0.000632 µM) of 0.305, a relative viability (NCI-H358; first compound 0.002 µM) of 0.135 and a relative viability (NCI-H358; first compound 0.006325 µM) of 0.12. For the same molecule, the relative viability (NCI-H358; first compound 0.02 µM) was 0.098, the relative viability (LC-2-ad; first compound 0.0002 µM) was 0.777 and the relative viability (LC-2-ad; first compound 0.000632 µM) was 0.544. For the same molecule, the relative viability (LC-2-ad; first compound 0.002 µM) was 0.503, the relative viability (LC-2-ad; first compound 0.006325 µM) was 0.445 and the relative viability (NCI-H650; first compound 0.0002 µM) was 0.796. For the same molecule, the relative viability (NCI-H650; first compound 0.000632 µM) was 0.519, the relative viability (NCI-H650; first compound 0.002 µM) was 0.212 and the relative viability (NCI-H650; first compound 0.006325 µM) was 0.18. It also gave a relative viability (NCI-H650; first compound 0.02 µM) of 0.111, a relative viability (LXF-289; first compound 0.0002 µM) of 0.683 and a relative viability (LXF-289; first compound 0.000632 µM) of 0.694. It also gave a relative viability (LXF-289; first compound 0.002 µM) of 0.138, a relative viability (LXF-289; first compound 0.006325 µM) of 0.111 and a relative viability (LXF-289; first compound 0.02 µM) of 0.0768. For the same molecule, the relative viability (NCI-H838; first compound 0.0002 µM) was 0.389, the relative viability (NCI-H838; first compound 0.000632 µM) was 0.3 and the relative viability (NCI-H838; first compound 0.002 µM) was 0.138. For the same molecule, the relative viability (NCI-H838; first compound 0.006325 µM) was 0.147, the relative viability (NCI-H838; first compound 0.02 µM) was 0.112 and the relative viability (SK-MES-1; first compound 0.0002 µM) was 0.695. For the same molecule, the relative viability (SK-MES-1; first compound 0.000632 µM) was 0.618, the relative viability (SK-MES-1; first compound 0.002 µM) was 0.267 and the relative viability (SK-MES-1; first compound 0.02 µM) was 0.163. The relative viability (BEN; first compound 0.0002 µM) was 0.0838, the relative viability (BEN; first compound 0.000632 µM) was 0.377 and the relative viability (BEN; first compound 0.002 µM) was 0.373. The relative viability (BEN; first compound 0.006325 µM) was 0.172, the relative viability (BEN; first compound 0.02 µM) was 0.116 and the relative viability (NCI-H1944; first compound 0.0002 µM) was 0.724. It also gave a relative viability (NCI-H1944; first compound 0.000632 µM) of 0.723, a relative viability (NCI-H1944; first compound 0.002 µM) of 0.635 and a relative viability (NCI-H1944; first compound 0.006325 µM) of 0.249. For the same molecule, the relative viability (NCI-H1944; first compound 0.02 µM) was 0.114, the relative viability (NCI-H2342; first compound 0.0002 µM) was 0.673 and the relative viability (NCI-H2342; first compound 0.000632 µM) was 0.677. The relative viability (NCI-H2342; first compound 0.002 µM) was 0.673, the relative viability (NCI-H2342; first compound 0.006325 µM) was 0.462 and the relative viability (NCI-H2342; first compound 0.02 µM) was 0.4. It also gave a relative viability (LK-2; first compound 0.0002 µM) of 0.193, a relative viability (LK-2; first compound 0.000632 µM) of 0.177 and a relative viability (LK-2; first compound 0.002 µM) of 0.157. For the same molecule, the relative viability (LK-2; first compound 0.006325 µM) was 0.164, the relative viability (LK-2; first compound 0.02 µM) was 0.168 and the relative viability (NCI-H661; first compound 0.0002 µM) was 0.782. It also gave a relative viability (NCI-H661; first compound 0.000632 µM) of 0.933, a relative viability (NCI-H661; first compound 0.002 µM) of 0.707 and a relative viability (NCI-H661; first compound 0.006325 µM) of 0.432. The relative viability (NCI-H661; first compound 0.02 µM) was 0.323, the relative viability (ChaGo-K-1; first compound 0.0002 µM) was 0.528 and the relative viability (ChaGo-K-1; first compound 0.000632 µM) was 0.468. The relative viability (ChaGo-K-1; first compound 0.002 µM) was 0.251, the relative viability (ChaGo-K-1; first compound 0.006325 µM) was 0.228 and the relative viability (LU99A; first compound 0.0002 µM) was 0.218. The relative viability (LU99A; first compound 0.000632 µM) was 0.245, the relative viability (LU99A; first compound 0.002 µM) was 0.23 and the relative viability (LU99A; first compound 0.006325 µM) was 0.193. It also gave a relative viability (LU99A; first compound 0.02 µM) of 0.2, a relative viability (NCI-H2087; first compound 0.0002 µM) of 0.166 and a relative viability (NCI-H2087; first compound 0.000632 µM) of 0.189. The relative viability (NCI-H2087; first compound 0.002 µM) was 0.147, the relative viability (NCI-H2087; first compound 0.006325 µM) was 0.168 and the relative viability (NCI-H2087; first compound 0.02 µM) was 0.124. The relative viability (NCI-H1666; first compound 0.0002 µM) was 0.943, the relative viability (NCI-H1666; first compound 0.000632 µM) was 0.776 and the relative viability (NCI-H1666; first compound 0.002 µM) was 0.623. For the same molecule, the relative viability (NCI-H1666; first compound 0.006325 µM) was 0.512, the relative viability (NCI-H1666; first compound 0.02 µM) was 0.374 and the relative viability (NCI-H1355; first compound 0.0002 µM) was 0.784. For the same molecule, the relative viability (NCI-H1355; first compound 0.000632 µM) was 0.66, the relative viability (NCI-H1355; first compound 0.002 µM) was 0.599 and the relative viability (NCI-H1355; first compound 0.006325 µM) was 0.255. The relative viability (NCI-H1355; first compound 0.02 µM) was 0.194, the relative viability (NCI-H1975; first compound 0.0002 µM) was 0.364 and the relative viability (NCI-H1975; first compound 0.000632 µM) was 0.24. The relative viability (NCI-H1975; first compound 0.002 µM) was 0.272, the relative viability (NCI-H1975; first compound 0.006325 µM) was 0.155 and the relative viability (NCI-H1975; first compound 0.02 µM) was 0.181. It also gave a relative viability (LCLC-97TM1; first compound 0.0002 µM) of 0.71, a relative viability (LCLC-97TM1; first compound 0.000632 µM) of 0.622 and a relative viability (LCLC-97TM1; first compound 0.002 µM) of 0.548. It also gave a relative viability (LCLC-97TM1; first compound 0.006325 µM) of 0.167, a relative viability (LCLC-97TM1; first compound 0.02 µM) of 0.106 and a relative viability (NCI-H1651; first compound 0.0002 µM) of 0.821. The relative viability (NCI-H1651; first compound 0.000632 µM) was 0.842, the relative viability (NCI-H1651; first compound 0.002 µM) was 0.258 and the relative viability (NCI-H1651; first compound 0.006325 µM) was 0.27. It also gave a relative viability (NCI-H1651; first compound 0.02 µM) of 0.12, a relative viability (PC-3 [JPC-3]; first compound 0.0002 µM) of 0.678 and a relative viability (PC-3 [JPC-3]; first compound 0.000632 µM) of 0.684. The relative viability (PC-3 [JPC-3]; first compound 0.002 µM) was 0.5, the relative viability (PC-3 [JPC-3]; first compound 0.006325 µM) was 0.223 and the relative viability (PC-3 [JPC-3]; first compound 0.02 µM) was 0.141.
